The record followed here is US20070196407A1, “Alkoxyphenylcarboxylic acid derivatives” (priority 2004, published 2007).

Assay [1] has as its system A. actinomycetemcomitans ATCC43718. Kind of assay: MIC against oral organisms in the serial dilution test. The class given is cell-based, Actinobacillus actinomycetemcomitans. Conditions: thioglycolate broth, 24 h aerobic with 10% CO2, unit not given, stock solutions in ppm (w/w). The text has this:
(§1) Determination of the MIC Against Various Oral Organisms in the Serial Dilution Test
(§2) Medium: Thioglycolate broth with hemin and menadione • Columbia broth with hemin and menadione for P. gingivalis and P. nigrescens
(§3) Dilution medium: The appropriate amount of the substances was pipetted directly onto the medium.
(§4) Test organisms: Actinobacillus actinomycetemcomitans ATCC 43718 • Streptococcus gordonii ATCC 10558 • Streptococcus mutans ATCC 33402 • Actinomyces viscosus ATCC 43146 • Fusobacterium nucleatum subsp. polymorphum ATCC 10953 • Porphyromonas gingivalis ATCC 33277 • Prevotella nigrescens ATCC 33563
(§5) Incubation: 7-10 days at 37° C. anaerobic, or 24 h aerobic with 10% CO2for Streptococci and A. actinomycetemcomitans
(§6) Test solution: Stock solutions of all the test substances in ethanol comprising 1500 ppm (w/w) are used.
(§7) Bacteria are removed from blood agar plates using cotton-wool-tipped sticks and a suitable O.D. is established in the appropriate medium (McFarland 0.5); this solution is used undiluted for F. nucleatum and P. nigrescens and diluted 1:20 for the other strains. 0.1 ml of bacteria culture is added to 2 ml of each of the active substance solutions, and incubation is carried out as described above.

In another assay the test system is S. mutans ATCC33402. Described as above. The class given is cell-based, Streptococcus mutans. Conditions: thioglycolate broth, 24 h aerobic with 10% CO2, unit not given, stock solutions in ppm (w/w).
Source text: as §1, §2, §3, §4, §5, §6, §7

Another assay concerns S. gordonii ATCC10558. Described as above. Conditions: thioglycolate broth, 24 h aerobic with 10% CO2, unit not given, stock solutions in ppm (w/w). The format is cell-based, Streptococcus gordonii.
Source text: as §1, §2, §3, §4, §5, §6, §7

For assay [2], the system named is Staphylococcus aureus ATCC 9144. As to the kind of experiment: MIC in the agar incorporation test. The class given is cell-based. Particulars: 24 hours at 37° C., unit not given, method gives agar concentrations in ppm. On the procedure: (§8) Test solution: 1% stock solutions of all the test substances are prepared in a suitable solvent and diluted in serial dilutions as far as possible so that final concentrations of from 500 ppm to 10 ppm are obtained in the agar. Test principle: 0.3 ml of the particular dilution stage is mixed with 15 ml of still liquid nutrient medium. After solidification of the nutrient base, 10 μl of the test strains in a suitable organism dilution in 0.85% NaCl solution are applied point-wise to the agar medium: [table]

The subject of assay [3] is Candida albicans ATCC 10231. Kind of assay: MIC in the agar incorporation test. The format is cell-based. Particulars: Sabouraud 4% glucose agar, 3 days at 28° C., unit not given, method gives agar concentrations in ppm. The protocol:
as §8

For assay [4], the system named is Escherichia coli ATCC 10536. Kind of assay: MIC in the agar incorporation test. The format is cell-based. Conditions: 24 hours at 37° C., unit not given, method gives agar concentrations in ppm. On the procedure: as §8
Assay [5] has as its system Staphylococcus epidermidis ATCC 12228. As to the kind of experiment: MIC in the agar incorporation test. The class given is cell-based. Conditions: unit not given, method gives agar concentrations in ppm. The protocol: as §8
In assay [6] the test system is Pseudomonas aeruginosa ATCC 15442. Kind of assay: MIC in the agar incorporation test. Particulars: 24 hours at 37° C., unit not given, method gives agar concentrations in ppm. The format is cell-based. The protocol:
as §8

The subject of assay [7] is Escherichia coli NCTC 8196. Kind of assay: MIC in the agar incorporation test. The format is cell-based. Conditions: 24 hours at 37° C., unit not given, method gives agar concentrations in ppm. The protocol:
as §8

The test system of assay [8] is Aspergillus niger ATCC 6275. Kind of assay: MIC in the agar incorporation test. The format is cell-based. Conditions: Sabouraud 4% glucose agar, 3 days at 28° C., unit not given, method gives agar concentrations in ppm. The protocol:
as §8

Assay [9] concerns Staphylococcus aureus ATCC 6538. As to the kind of experiment: MIC in the agar incorporation test. The class given is cell-based. Conditions: 24 hours at 37° C., unit not given, method gives agar concentrations in ppm. On the procedure:
as §8

For assay [10], the system named is Klebsiella pneumoniae ATCC 4352. Kind of assay: MIC in the agar incorporation test. The format is cell-based. Particulars: unit not given, method gives agar concentrations in ppm. The protocol:
as §8

The subject of assay [11] is Propionibacterium acnes ATCC 6919. Kind of assay: MIC in the agar incorporation test. Particulars: unit not given, method gives agar concentrations in ppm. The class given is cell-based. On the procedure:
as §8

The test system of assay [12] is Salmonella choleraesuis ATCC 9184. As to the kind of experiment: MIC in the agar incorporation test. The format is cell-based. Conditions: unit not given, method gives agar concentrations in ppm. The protocol:
as §8

The subject of assay [13] is Proteus vulgaris ATCC 6896. Kind of assay: MIC in the agar incorporation test. The class given is cell-based. Particulars: unit not given, method gives agar concentrations in ppm. On the procedure: as §8
In assay [14] the test system is Corynebacterium minutissimum ATCC 23348. Kind of assay: MIC in the agar incorporation test. The format is cell-based. Conditions: unit not given, method gives agar concentrations in ppm. The protocol: as §8
Assay [15] deals with Actinomyces viscosus ATCC 43146. As to the kind of experiment: Substantivity on hydroxyapatite and growth-inhibiting action. The class given is cell-based. Conditions: plates pretreated with synthetic saliva, incubated in ethanolic solution comprising 50 and 500 ppm; 24 hours at 37° C.; in comparison with an untreated control (FIGS. 1 and 2). On the procedure: Principle: apatite plates (dia. 10 mm) are placed in synthetic saliva (Deutsche Zahnärztliche Zeitschrift DZZ May 2002), rinsed in NaCl and then incubated in an ethanolic solution of test substances (II) and (III) comprising 50 and 500 ppm. The plates are then introduced into a Nunclon Surface titre plate (12 wells) and incubated for 24 hours at 37° C. in Caso nutrient medium which has been inoculated with Actinomyces viscosus ATCC 43146 (about 10^5/ml).

Assay [16] relates to biofilm of a defined mixed culture of gram+ and gram− oral organisms and a yeast (Candida albicans) on hydroxyapatite discs. As to the kind of experiment: Activity in the biofilm model (in vitro supragingival plaque). Particulars: 0.5% substance (II) in mouthwash formulation. The class given is cell-based. The text has this:
Test of the Activity of 2-dodecyloxy-benzoic Acid (II) in the Biofilm Model
Principle: see Guggenheim et a/. (2001), “Validation of an in vitro biofilm model of supragingival plaque”, J. Dent Res. 80 (1)
Hydroxyapatite discs are pretreated with human saliva and a biofilm of a defined mixed culture of various gram+ and gram− oral organisms (Streptococci, Actinomyces sp., Veillonella & Fusobacterium sp. & others) and a yeast (Candida albicans) are allowed to grow on the hydroxyapatite. During the test period of 4 days, the discs are immersed, several times in all, in the below given application formulation of the substance (II),
and at the end the biofilm is harvested and the number of living cells is determined.

The next assay deals with P. gingivalis ATCC3277. Kind of assay: MIC against oral organisms in the serial dilution test. The format is cell-based, Porphyromonas gingivalis. Particulars: Columbia broth with hemin and menadione, 7-10 days at 37° C. anaerobic, unit not given, stock solutions in ppm (w/w).
Source text: as §1, §2, §3, §4, §5, §6, §7

The subject of another assay is P. nigrescens ATCC33563. Described as above. The format is cell-based, Prevotella nigrescens. Conditions: Columbia broth with hemin and menadione, 7-10 days at 37° C. anaerobic, unit not given, stock solutions in ppm (w/w).
Source text: as §1, §2, §3, §4, §5, §6, §7

The subject of assay [17] is F. nucleatum subsp. polymorphum ATCC10953. Described as above. The format is cell-based, Fusobacterium nucleatum subsp. polymorphum. Conditions: thioglycolate broth, 7-10 days at 37° C. anaerobic, unit not given, stock solutions in ppm (w/w).
Source text: as §1, §2, §3, §4, §5, §6, §7

The test system of a further assay is A. viscosus ATCC43146. The description is as above. Conditions: thioglycolate broth, 7-10 days at 37° C. anaerobic, unit not given, stock solutions in ppm (w/w). The class given is cell-based, Actinomyces viscosus.
Source text: as §1, §2, §3, §4, §5, §6, §7

Where “and” joins values, the source holds several entries; their conditions need not be identical. Equal entries are not always repeated.

Consider `CCCCCCCCCCCCOc1ccccc1C(=O)O` [II, 2-dodecyloxy-benzoic acid], for which the MIC in [1] is listed as >15; in the assay with S. mutans ATCC33402, 7.5; in the assay with S. gordonii ATCC10558, 15; in the assay on P. gingivalis ATCC3277 it was 7.5; in the assay on P. nigrescens ATCC33563 it was >15; in assay [17], >15. Further, the MIC against A. viscosus ATCC43146 is 1.88. For the same compound, the “Minimum Inhibitory Concentration (MIC)” value in assay [2] was 31.25; in [3], >500; in assay [4] it was >500; in assay [5], 15.63; in assay [6], >500; in [7], >500. Besides, the “Minimum Inhibitory Concentration (MIC)” value in assay [8] is >500; in assay [9], 31.25; in assay [10] it was >500; in assay [11], 15.63; in assay [12] it was >500; in [13], >500. Further, the “Minimum Inhibitory Concentration (MIC)” value in [14] stood at 15.63. In addition, the “growth of Actinomyces viscosus after adsorption of the substance onto hydroxyapatite plates” value in [15] was “inhibition of the growth”. For the same compound, the “number of living cells of the harvested biofilm (mean values)” value in [16] (discs immersed several times during 4 days, two independent tests) was 1.2 × 10^5 CFU/disc and 1.7 × 10^5 CFU/disc. Further, the “microbial count of the biofilm on the hydroxyapatite discs compared with the placebo formulation” value in [16] (test period of 4 days) is on record as “marked reduction”.
As for `CCCCCCCCCCCCCCCCOc1cc(C(=O)O)cc(C(=O)O)c1` [III, 5-hexadecyloxy-isophthalic acid], the MIC in [1] is listed as 15; in the assay with S. mutans ATCC33402, 3.75; with S. gordonii ATCC10558 it was “≦0.94”; against P. gingivalis ATCC3277 it was “≦0.94”; in the assay with P. nigrescens ATCC33563, >15; in [17] it was >15. Besides, the MIC against A. viscosus ATCC43146 is given as 1.88. Besides, the “Minimum Inhibitory Concentration (MIC)” value is recorded as 24 in [2]; >48 in assay [3]; >48 in assay [4]; 12 in assay [5]; >48 in [6]; >48 in assay [7]. Moreover, the “Minimum Inhibitory Concentration (MIC)” value is reported as >48 in [8]; 24 in assay [9]; >48 in assay [10]; 12 in [11]; >48 in assay [12]; >48 in assay [13]. Also, in assay [14], the “Minimum Inhibitory Concentration (MIC)” value is given as 24. Moreover, the “growth of Actinomyces viscosus after adsorption of the substance onto hydroxyapatite plates” value in assay [15] is given as “inhibition of the growth”.
